According to patent publication US20230090868A1, “ANTI-CD30 ANTIBODY-DRUG CONJUGATES AND THEIR USE FOR THE TREATMENT OF NON-HODGKIN LYMPHOMA” (Seagen Inc., priority 2020, published 2023):
Where two headings read alike, the source gives them in different places.

Key:
[1] = single 25 mg dose with a high-fat meal, healthy subjects; cited from earlier work
[2] = Phase I trial dose-escalation phase: maximum tolerated dose (MTD) and dose-limiting toxicities; assay type: in vivo, human; conditions: lenalidomide in combination with BV; by mouth Days 1-21 of each 21-day cycle; rel/ref DLBCL patients
Source text: The maximum tolerated dose (MTh) was defined as the dose level immediately below the dose level at which 2 patients of a cohort (of 2 to 6 patients) experienced dose-limiting toxicity during the first cycle. Dose escalations proceeded until the MTD was reached.
Hematologic dose limiting toxicity (DLT) was defined as any of the following that occured during the first cycle that were attributed as possibly, probably, or definitely related to the study treatment: • Grade 4 neutropenia >7 day duration • Grade 4 infection with grade 3 or 4 neutropenia (life-threatening sepsis) • Grade 4 thrombocytopenia associated with life-threatening bleeding or requiring more than 1 transfusion • Treatment delay >14 days due to hematologic toxicity
Non-hematologic DLT was defined as any possibly, probably, or definitely related grade 3 or grade 4 non-hematologic toxicity that occured during the first cycle with the following specific exceptions: • Grade 3 or 4 nausea, vomiting, or anorexia that returns to Grade 1 prior to the start of Cycle 2 • Grade 3 metabolic abnormalities (e.g., hyperglycemia) • Grade 3 fatigue
Dose escalations proceeded as follows after the occurrence of dose-limiting toxicity (DLT):
Dose escalation occurred after all patients in the cohort completed the first cycle according to the following scheme: […]

R/R DLBCL = conditions: cited from earlier work
[3] = cited from earlier work
P-gp [4] = biological target: T1, P-gp (Homo sapiens, UniProt P08183); conditions: controlled studies; cited from earlier work
T1 sequence (P08183 whole entry): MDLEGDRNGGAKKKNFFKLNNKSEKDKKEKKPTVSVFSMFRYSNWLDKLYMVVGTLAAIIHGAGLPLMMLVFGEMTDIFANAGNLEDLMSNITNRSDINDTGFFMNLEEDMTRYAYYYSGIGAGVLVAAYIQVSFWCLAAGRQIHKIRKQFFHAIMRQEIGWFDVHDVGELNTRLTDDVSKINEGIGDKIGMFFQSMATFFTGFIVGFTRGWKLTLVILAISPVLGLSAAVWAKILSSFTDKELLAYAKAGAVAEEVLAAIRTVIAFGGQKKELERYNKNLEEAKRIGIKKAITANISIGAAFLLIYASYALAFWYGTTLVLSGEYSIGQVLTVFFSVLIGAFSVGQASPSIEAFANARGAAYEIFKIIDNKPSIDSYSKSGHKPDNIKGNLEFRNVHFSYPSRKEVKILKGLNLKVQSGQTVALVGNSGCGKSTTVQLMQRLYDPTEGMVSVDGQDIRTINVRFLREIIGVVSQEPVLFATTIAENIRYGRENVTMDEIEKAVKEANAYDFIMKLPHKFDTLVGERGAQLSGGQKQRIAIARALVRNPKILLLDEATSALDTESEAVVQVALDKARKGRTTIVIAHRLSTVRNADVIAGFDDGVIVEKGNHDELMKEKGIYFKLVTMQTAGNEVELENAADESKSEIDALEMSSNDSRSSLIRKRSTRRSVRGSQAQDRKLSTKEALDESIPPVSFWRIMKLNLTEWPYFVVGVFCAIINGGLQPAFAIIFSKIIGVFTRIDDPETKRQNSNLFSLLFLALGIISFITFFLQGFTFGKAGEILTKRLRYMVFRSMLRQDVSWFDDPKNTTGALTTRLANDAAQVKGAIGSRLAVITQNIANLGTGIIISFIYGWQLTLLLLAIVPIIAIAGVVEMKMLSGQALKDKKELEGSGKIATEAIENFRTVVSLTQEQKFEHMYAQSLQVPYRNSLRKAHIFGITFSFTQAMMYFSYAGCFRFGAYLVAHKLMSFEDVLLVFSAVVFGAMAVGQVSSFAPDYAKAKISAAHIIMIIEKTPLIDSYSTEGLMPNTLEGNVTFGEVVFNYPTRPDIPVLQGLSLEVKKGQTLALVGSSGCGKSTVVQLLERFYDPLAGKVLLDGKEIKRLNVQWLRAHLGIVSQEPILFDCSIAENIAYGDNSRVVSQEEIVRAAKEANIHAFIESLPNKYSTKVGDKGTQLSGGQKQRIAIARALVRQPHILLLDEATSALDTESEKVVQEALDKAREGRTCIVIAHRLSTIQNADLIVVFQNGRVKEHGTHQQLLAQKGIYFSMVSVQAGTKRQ

P-gp [5] = biological target: T1, P-gp; conditions: in vitro; cited from earlier work
[6] = tested on: xenograft models of Hodgkin disease; conditions: SCID mouse xenograft models of Hodgkin disease; cited from earlier work
CD30+ cell lines = conditions: in vitro; cited from earlier work

| Molecule | decrease in area under the concentration-time curve [1] [%] | decrease in maximum plasma concentration (Cmax) [1] [%] | maximum tolerated dose (MTD) [2] [mg] | median progression-free survival (PFS) (R/R DLBCL; GCB subjects, P=0.550) [weeks] | median progression-free survival (PFS) (R/R DLBCL; all subjects with R/R DLBCL, P=0.041) [weeks] | median progression-free survival (PFS) (R/R DLBCL; non-germinal-center B-cell-like (non-GCB) subjects, P=0.021) [weeks] | objective response rate (ORR) (R/R DLBCL; subjects with R/R DLBCL) [%] | drug accumulation ([3]; multiple doses at the recommended dosage) | time post-dose at which maximum plasma concentrations occurred ([3]; single and multiple doses, subjects with MM or MDS, (approximately 0.5 to 6 hours)) [h] | PK interactions with P-gp substrates/inhibitors (P-gp [4]) | substrate of P-gp (P-gp [5]) | antitumor activity [6] | growth arrest of CD30+ cell lines (CD30+ cell lines) |
| --- | --- | --- | --- | --- | --- | --- | --- | --- | --- | --- | --- | --- | --- |
| Nc1cccc2c1CN(C1CCC(=O)NC1=O)C2=O (racemic) [lenalidomide, (RS)-3-(4-Amino-1-oxo-1,3-dihydro-2H-isoindol-2-yl)piperidine-2,6-dione] | ~20 | ~50 | 20 | 10.1 | 13.6 | 15.1 | 27.5 | does not result in drug accumulation | 1 | does not have clinically significant PK interactions | weak substrate | – | – |
| cAC10: chimeric IgG1 monoclonal antibody that specifically binds CD30 | – | – | – | – | – | – | – | – | – | – | – | pronounced antitumor activity | induces growth arrest |
